Test results published in US20070167408A1, “NOVEL ALKYL PHOSPHOLIPID DERIVATIVES WITH REDUCED CYTOTOXICITY AND USES THEREOF” (ZENTARIS GmbH, priority 2005, published 2007).
Converted amounts (≈) assume the structure as drawn.

Columns and labels:
Format in all cases: cell-based
[1] = system: Trypanosoma brucei rhodesiense (strain STIB900); experiment: In vitro drug activity assay, protozoon B; conditions: bloodstream form trypomastigotes, 72 hours, Alamar Blue
Protocol: In vitro activity of selected compounds of the invention against different protozoa was assessed as follows.
Trypanosoma brucei rhodesiense STIB900 bloodstream form trypomastigotes were maintained in HMI-18 medium (Hirumi H, Hirumi K, J Parasitol. 1989, 75(6):985-989) with 15% heat-inactivated fetal calf serum at 37° C., 5% CO2, humidified atmosphere. Trypomastigotes were washed and resuspended in fresh medium at a concentration of 2×10^5 mL. Test compounds were given to the trypomastigotes and plates were incubated for 72 hours at 37° C., 5% CO2, humidified atmosphere. At 72 hours the plates were assessed microscopically before Alamar Blue was added (Raz et al., Acta Trop. 1997, 68: 139-147). Plates were read after 5 to 6 hours at EX/EM 530/585 nm with a filter cutoff at 550 nm. ED50 values were calculated with Msxlfit (IDBS).
The following protozoa were assessed: • A) Trypanosoma cruzi (Tulahuan-LACZ amstigotes in PEM, Lorente S O et al., Antimicrobial agents and chemotherapy 2004, 48(8): 2937-2950; Buckner et al., Infection and Immunity 1999, 67(1): 403-409; Buckner et al., Antimicrobial Agents and Chemotherapy 1996, 40(11): 2592-2597) • B) Trypanosoma brucei rhodesiense (strain STIB900, Lorente S O et al., Antimicrobial agents and chemotherapy 2004, 48(8): 2937-2950; Habtemariam S, BMC Pharmacology 2003, 3:6) • C) Plasmodium falciparum (strain K1, Korsinczky M et al., Antimicrobial agents and chemotherapy 2000, 44(8): 2100-2108; Thaitong S and Beale G H, Trans. R. Soc. Trop. Med. Hyg. 1981, 75: 271-273; Trager W and Jensen J B, Science 1976, 193: 673-675) • D) Plasmodium faiciparum (strain 3D7, Mu et al., PLoS Biology 2005, 3(10): e335)

[2] = system: Enterococcus faecium DSM 20477 (ATCC 19434); experiment: Anti-bacterial bouillon microdilution assay (MIC), bacterium C; conditions: Enterococcus faecium DSM 20477, 24 h
Protocol: Selected compounds of the invention were tested in a bouillon microdilution assay method according to the DIN 58940 (www.din.de) guidelines for determination of susceptibility of bacterial strains with regard to cell growth inhibition. The assay method quantifies bacterial cell growth which corresponds to the turbidity of the liquid culture medium by photometric measurement carried out at 595 nm.
The method of MIC determination was performed according to DIN 58940-5. The volumina were adapted according to the microdilution method as described in DIN 58940-7 guideline.
Dependent on water solubility, compounds of the invention were dissolved either in water or ethanol in a concentration of 10 mg/ml. Subsequently, the stock was further diluted in water to a concentration of 512 μg/ml. The following serial dilutions (factor 2) were performed in water resulting in the following […] testing concentrations: 256 μg/ml, 128 μg/ml, 64 μg/ml, 32 μg/ml, 16 μg/ml, 8 μg/ml, 4 μg/ml, 2 μg/ml, 1 μg/ml, 0.5 μg/ml, 0.25 μg/ml and 0.125 μg/ml. Diluted compounds of the invention were transferred in 100 μl volume to the microtiter plate wells. […]
Before and after incubation, bacterial growth was determined by photometric analysis against a positive control containing growing bacteria without compound and a sterile/negative control containing only the medium.

[3] = system: epimastigotes of Trypanosoma cruzi strain Y; experiment: In vitro activity of miltefosine and benznidazole against epimastigotes; conditions: 72 h
Protocol: In vitro activity of Miltefosine and Benznidazole in the course of a combination treatment against Trypanosoma cruzi strain Y was assessed compared to the respective single treatments with miltefosine or benznidazole alone.
Miltefosine and Benznidazol were tested in vitro in combination against epimastigote forms of Trypanosoma cruzi strain Y which were isolated from a chagasic patient in Sao Paulo, Brazil and obtained from Dr. Victor Nussenzweig (Silva, L H. and Nussenzweig, V.; Folia clin. biol., 20: 191-207, 1953). This T. cruzi Y strain can also be ordered at ATCC 50832, while the ATCC strain must be re-adapted by several passages through mice in order to regain the strain's original characteristics of differentiation and virulence.
Epimastigotes were axenially cultured in brain heart infusion medium (BHI, Becton, Dickinson, Cat. No. 221812) supplemented with 10 mg of hemin per liter and 5% heat inactivated fetal calf serum (FCS) at 28° C. with shaking (˜80 rpm) up to a maximum of 10-12 passages, before the cultures were aged to obtain metacyclics that were purified on a DE-52 column (Whatman DEAE cellulose ion exchange column, Waco, Cat. No. 17050-03 or 17050-04) and injected into mice. After 2-4 weeks parasites were recovered from blood and placed back into axenic culture.
Stock solutions of Miltefosine and Benznidazol in concentrations of 10 mg/ml and 20 mg/ml dissolved in methanol were used. Stock solutions were serially diluted with a factor of 2 in BHI-FCS medium. For Benznidazol the following testing concentrations were used: 80 μg/ml, 40 μg/ml, 20 μg/ml, 10 μg/ml, 5 μg/ml and 2.5 μg/ml. The testing concentrations for Miltefosine were 20 μg/ml, 10 μg/ml, 5 μg/ml, 2.5 μg/ml, 1.25 μg/ml and 0.625 μg/ml.
2×10^6 epimastigotes were incubated in BHI-FCS medium with Miltefosine and Benznidazol in a final volume of 200 μl. After 72 h incubation at 28° C., parasite growth was determined by direct counting the number of parasites with a Neubauer chamber. The 50% inhibitory concentrations were determined by linear regression analysis.

## CCCCCCCCCCCCCCCCOP(=O)([O-])OCC[N+]1(C)CCCCC1 [Compound 2, Phosphoric acid hexadecyl ester 2-(1-methyl-piperidin-1-yl)-ethyl ester]
[1]
  ED50 (μg/mL), protozoon B: 17.50 µg/mL (≈ 39.1 µM)

## CCCCCCCCCCCCCCCCOP(=O)([O-])OCC[N+](C)(C)C [miltefosine, hexadecylphosphocholine, reference compound]
[2]
  MIC: 32 µg/mL (≈ 78.5 µM)
[3]; miltefosine 1.25 ug/mL
  Epimastigotes [amount/mL]: 820.000 amount/mL
[3]; miltefosine 2.5 ug/mL
  Epimastigotes [amount/mL]: 290.000 amount/mL
